Measurements from patent publication USRE47689E1, “Compounds for treating spinal muscular atrophy” (PTC Therapeutics, Inc., priority 2011, dated 2019).

Columns and labels:
[1] = tested on: SMN2 minigene (full length SMN2 minigene mRNA containing SMN2 exon 7); test: SMN2 minigene mRNA splicing RT-qPCR assay in cultured cells; assay type: cell-based, human; details: Homo sapiens, HEK293-H; HEK293H cells stably transfected with SMN2-A minigene; 24 hours; 7-point concentration curve; 1.5-fold relative to vehicle-treated cells; read-out: EC1.5x for production of full length SMN2 mRNA
Procedure, shortened: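 Read-out: full-length (exon 7-included) SMN2 minigene mRNA by multiplex RT-qPCR with GAPDH, efficiency-corrected (1+E)^−Ct, GAPDH-normalized and divided by vehicle. Stably transfected HEK293H cells, 24 h compound exposure, duplicates per concentration. Value is EC1.5x, reported as star ranges.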

Smn protein = Smn protein assay in cultured cells (SMN HTRF); assay type: cell-based, human; details: 48 hours; for EC1.5x (concentration giving 1.5-fold Smn protein increase): SMA Type 1 patient fibroblast cells (GM03813), 7-point concentration curve, SMN HTRF, concentration producing 1.5 times Smn protein vs DMSO vehicle control, read-out: EC1.5x for Smn protein expression; for maximum fold (Fold) increase of Smn protein: SMA patient fibroblast cells, 7-point concentration data, fold increase relative to vehicle control (SMN HTRF)
Procedure, shortened: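 Lysates in RIPA with protease inhibitors are incubated overnight at room temperature with HTRF anti-SMN antibodies. EC1.5x is derived from fold increase in ΔF over vehicle.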

| SMILES | melting point [°C] | EC (1.5-fold) [1] [µM] | EC1.5x (concentration giving 1.5-fold Smn protein increase) (Smn protein) [nM] | maximum fold (Fold) increase of Smn protein (Smn protein) |
| --- | --- | --- | --- | --- |
| CN1CCN(c2ccc3cc(-c4nc5ccccc5s4)c(=O)oc3c2)CC1 [Compound 16, 3-(1,3-benzothiazol-2-yl)-7-(4-methylpiperazin-1-yl)-2H-chromen-2-one] | 259 to 262 | 0.3 to 1 | – | ** (fold increase between >1.2 and ≤1.35) |
| CN(CCO)Cc1ccc2cc(-c3nc4c(Cl)cccc4s3)c(=O)oc2c1 [Compound 271, 3-(4-chloro-1,3-benzothiazol-2-yl)-7-{[(2-hydroxyethyl)(methyl)amino]methyl}-2H-chromen-2-one] | 193 to 196 | 1 to 3 | 3000 to 10000 | **** (fold increase between >1.5 and ≤1.65) |
| Cc1ccc2cc(-c3cc4ccc(N5C[C@@H](C)N[C@@H](C)C5)cc4oc3=O)cn2n1 [Compound 639, 7-[(3R,5S)-3,5-dimethylpiperazin-1-yl]-3-(2-methylpyrrolo[1,2-b]pyridazin-6-yl)-2H-chromen-2-one] | 105 to 108 | < 0.1 | – | * (maximum fold increase of ≤1.2) |
| Cc1cc(F)c2nc(-c3cc4ccc(N5CCN[C@H](C)C5)cc4oc3=O)cn2c1 [Compound 420, 3-(8-fluoro-6-methylimidazo[1,2-a]pyridin-2-yl)-7-[(3R)-3-methylpiperazin-1-yl]-2H-chromen-2-one] | 246 to 254 | < 0.1 | < 300 | **** (fold increase between >1.5 and ≤1.65) |
| CN(CCO)Cc1ccc2cc(-c3nc4ccccc4s3)c(=O)oc2c1 [Compound 79, 3-(1,3-benzothiazol-2-yl)-7-{[(2-hydroxyethyl)(methyl)amino]methyl}-2H-chromen-2-one] | 182 to 184 | 1 to 3 | – | *** (fold increase between >1.35 and ≤1.5) |
| O=c1oc2cc(CN3CCCCC3)ccc2cc1-c1nc2ccccc2s1 [Compound 59, 3-(1,3-benzothiazol-2-yl)-7-(piperidin-1-ylmethyl)-2H-chromen-2-one] | 201 to 205 | 1 to 3 | – | ** (fold increase between >1.2 and ≤1.35) |
| COc1cccn2cc(-c3cc4ccc(N5CCCN(C)CC5)cc4oc3=O)nc12 [Compound 419, 3-(8-methoxyimidazo[1,2-a]pyridin-2-yl)-7-(4-methyl-1,4-diazepan-1-yl)-2H-chromen-2-one] | 212 to 215 | 0.3 to 1 | – | ** (fold increase between >1.2 and ≤1.35) |
| CCN1CCN(c2ccc3cc(-c4cc5ccccn5n4)c(=O)oc3c2)CC1 [Compound 194, 7-(4-ethylpiperazin-1-yl)-3-(pyrazolo[1,5-a]pyridin-2-yl)-2H-chromen-2-one] | 246 to 248 | 0.3 to 1 | – | * (maximum fold increase of ≤1.2) |
| COc1ccc(-c2cc3ccc(N4CCNCC4)cc3oc2=O)cc1F [Compound 544, 3-(3-fluoro-4-methoxyphenyl)-7-(piperazin-1-yl)-2H-chromen-2-one] | 241 to 243 | 0.1 to 0.3 | – | ** (fold increase between >1.2 and ≤1.35) |

More lines, main results first:

| melting point [°C] | SMILES | EC (1.5-fold) [1] [µM] | EC1.5x (concentration giving 1.5-fold Smn protein increase) (Smn protein) [nM] | maximum fold (Fold) increase of Smn protein (Smn protein) |
| --- | --- | --- | --- | --- |
| 195 to 202 | Cc1cn2cc(-c3cc4ccc(O[C@@H]5CCN(C)C5)cc4oc3=O)nc2c(C)n1 [Compound 889, 3-(6,8-dimethylimidazo[1,2-a]pyrazin-2-yl)-7-{[(3R)-1-methylpyrrolidin-3-yl]oxy}-2H-chromen-2-one] | < 0.1 | < 300 | ***** (fold increase >1.65) |
| 118 to 122 | Cc1cn2cc(-c3cc4ccc(N5CCC(N6CCOCC6)C5)cc4oc3=O)cc2c(C)n1 (stereo not shown) [Compound 757, 3-(1,3-dimethylpyrrolo[1,2-a]pyrazin-7-yl)-7-[3-(morpholin-4-yl)pyrrolidin-1-yl]-2H-chromen-2-one] | 0.3 to 1 | 1000 to 3000 | *** (fold increase between >1.35 and ≤1.5) |
| 193 to 195 | CCN1CC[C@@H](Oc2ccc3cc(-c4cn5cc(C)nc(C)c5n4)c(=O)oc3c2)C1 [Compound 890, 3-(6,8-dimethylimidazo[1,2-a]pyrazin-2-yl)-7-{[(3R)-1-ethylpyrrolidin-3-yl]oxy}-2H-chromen-2-one] | < 0.1 | < 300 | ***** (fold increase >1.65) |
| 177 to 180 | CC(C)Oc1cccc(-c2cc3ccc(N4CCNCC4)cc3oc2=O)n1 [Cpd 385, 7-(piperazin-1-yl)-3-[6-(propan-2-yloxy)pyridin-2-yl]-2H-chromen-2-one] | 1 to 3 | – | * (maximum fold increase of ≤1.2) |
| 178 to 180 | Cc1ccc2oc(-c3cc4ccc(N5CCN(C)CC5)cc4oc3=O)cc2n1 [Cpd 698, 3-(5-methylfuro[3,2-b]pyridin-2-yl)-7-(4-methylpiperazin-1-yl)-2H-chromen-2-one] | 1 to 3 | – | * (maximum fold increase of ≤1.2) |
| 246 to 250 | Cc1cn2cc(-c3cc4ccc(N5CC(N(C)C)C5)cc4oc3=O)nc2c(C)n1 [Cpd 943, 7-[3-(dimethylamino)azetidin-1-yl]-3-(6,8-dimethylimidazo[1,2-a]pyrazin-2-yl)-2H-chromen-2-one] | < 0.1 | < 300 | **** (fold increase between >1.5 and ≤1.65) |
| 250 to 260 | Cc1cn2cc(-c3cc4ccc(N5C[C@H]6CNC[C@H]6C5)cc4oc3=O)nc2c(C)n1 [Compound 686, 3-(6,8-dimethylimidazo[1,2-a]pyrazin-2-yl)-7-[(3aR,6aS)-hexahydropyrrolo[3,4-c]pyrrol-2(1H)-yl]-2H-chromen-2-one] | < 0.1 | < 300 | ***** (fold increase >1.65) |
| 184 to 187 | Cc1cn2cc(-c3cc4ccc(CCCNC(C)C)cc4oc3=O)nc2c(C)n1 [Compound 858, 3-(6,8-dimethylimidazo[1,2-a]pyrazin-2-yl)-7-[3-(propan-2-ylamino)propyl]-2H-chromen-2-one] | < 0.1 | < 300 | **** (fold increase between >1.5 and ≤1.65) |
| 247 to 253 | Cc1cn2cc(-c3cc4ccc(C5CCNCC5)cc4oc3=O)nc2cn1 [Compound 868, 3-(6-methylimidazo[1,2-a]pyrazin-2-yl)-7-(piperidin-4-yl)-2H-chromen-2-one] | < 0.1 | < 300 | ***** (fold increase >1.65) |
| 130 to 133 | CCN1CCCN(c2ccc3cc(-c4cc5cnc(C)cn5c4)c(=O)oc3c2)CC1 [Compound 667, 7-(4-ethyl-1,4-diazepan-1-yl)-3-(3-methylpyrrolo[1,2-a]pyrazin-7-yl)-2H-chromen-2-one] | < 0.1 | < 300 | **** (fold increase between >1.5 and ≤1.65) |
